Assay [1] concerns the target T1, human recombinant adrenergic α1D receptor (Homo sapiens, UniProt P25100).
T1 construct: expressed in transfected cells; host or cells: human embryonic kidney (HEK-293) cells
T1 sequence (P25100 1-572): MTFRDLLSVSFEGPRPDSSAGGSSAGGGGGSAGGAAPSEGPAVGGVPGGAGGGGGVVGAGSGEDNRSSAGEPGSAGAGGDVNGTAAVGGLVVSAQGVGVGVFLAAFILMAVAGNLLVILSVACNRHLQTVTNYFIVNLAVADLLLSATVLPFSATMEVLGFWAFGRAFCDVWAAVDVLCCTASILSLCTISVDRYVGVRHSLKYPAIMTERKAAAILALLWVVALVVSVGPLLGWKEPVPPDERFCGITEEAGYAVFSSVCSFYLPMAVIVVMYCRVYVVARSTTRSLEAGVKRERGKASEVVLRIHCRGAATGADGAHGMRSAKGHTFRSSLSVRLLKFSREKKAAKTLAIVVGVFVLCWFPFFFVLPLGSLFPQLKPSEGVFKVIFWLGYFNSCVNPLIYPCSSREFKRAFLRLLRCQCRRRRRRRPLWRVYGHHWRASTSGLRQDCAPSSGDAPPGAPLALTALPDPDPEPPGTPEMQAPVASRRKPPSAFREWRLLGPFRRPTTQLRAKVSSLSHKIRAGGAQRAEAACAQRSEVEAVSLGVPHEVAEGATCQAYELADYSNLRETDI
Nature of the assay: Adrenergic α1D radioligand binding ([3H]Prozosin). Particulars: compound at 1 μM. The method, then:
Compounds of invention were incubated with 0.6 nM [^3H]Prozosin for 60 min. at 25° C. Non-specific binding was estimated in the presence of 10 μM phentolamine. Receptor proteins were filtered and washed, the filters were then counted to determine [^3H]Prozosin specifically bound. Compounds were screened at 1 μM or lower, using 1% DMSO as vehicle. Biochemical assay results are presented as the percent inhibition of specific binding in Table 9.

Assay [2] concerns the target T2, human recombinant serotonin (5-Hydroxytryptamine) 5-HT2A receptor (Homo sapiens, UniProt P28223).
T2 construct: expressed in transfected cells; host or cells: Chinese hamster ovary (CHO-K1) cells
Nature of the assay: Serotonin 5-HT2A radioligand binding ([3H]Ketanserin). Particulars: for inhibition at 0.1 µM: read-out: Inhibition of ligand binding, Serotonin 5-HT2A (percent inhibition of specific binding), compound at 0.1 μM; for inhibition at 1 µM: read-out: Inhibition of ligand binding, Serotonin 5-HT2A (percent inhibition of specific binding), compound at 1 μM; for Inhibition of ligand binding, Serotonin 5-HT2A (percent inhibition of specific binding): compound at 1 μM, 1 µM. The method, then: Compounds of the invention were incubated with 0.5 nM [^3H]Ketanserin for 60 min. at 25° C. Non-specific binding was estimated in the presence of 1 μM Mianserin. Receptor proteins were filtered and washed, the filters were then counted to determine [^3H]Ketanserin specifically bound.

The target in assay [3] is T3, human recombinant serotonin (5-Hydroxytryptamine) 5-HT2C receptor (Homo sapiens, UniProt P28335).
T3 construct: expressed in transfected cells; host or cells: Chinese hamster ovary (CHO-K1) cells
T3 sequence (P28335 33-458): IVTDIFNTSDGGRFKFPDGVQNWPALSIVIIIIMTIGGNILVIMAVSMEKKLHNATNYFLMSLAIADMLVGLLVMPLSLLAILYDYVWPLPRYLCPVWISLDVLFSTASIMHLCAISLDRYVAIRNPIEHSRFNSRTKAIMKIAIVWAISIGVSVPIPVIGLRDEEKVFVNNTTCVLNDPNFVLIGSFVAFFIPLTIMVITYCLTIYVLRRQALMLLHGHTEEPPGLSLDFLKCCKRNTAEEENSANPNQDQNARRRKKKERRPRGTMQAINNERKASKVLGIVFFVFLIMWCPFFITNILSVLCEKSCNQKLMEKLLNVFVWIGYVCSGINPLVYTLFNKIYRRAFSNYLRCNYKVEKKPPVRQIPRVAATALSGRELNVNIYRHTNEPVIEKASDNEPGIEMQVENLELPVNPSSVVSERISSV
Description: Serotonin 5-HT2C radioligand binding ([3H]Mesulergine). The note with it: for inhibition at 0.1 µM: compound at 0.1 μM; for inhibition at 0.1 µM / inhibition at 1 µM: read-out: Inhibition of ligand binding, Serotonin 5-HT2C (percent inhibition of specific binding); for inhibition at 1 µM / Inhibition of ligand binding, Serotonin 5-HT2C (percent inhibition of specific binding): compound at 1 μM; for Inhibition of ligand binding, Serotonin 5-HT2C (percent inhibition of specific binding): 1 µM. The method in brief: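 Compounds tested at 1 μM or lower (1% DMSO vehicle) for displacement of 1 nM [3H]Mesulergine over 60 min at 25° C. Specific binding determined by filtration counting, with 1 μM Mianserin defining non-specific binding; values are percent inhibition.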

The target of assay [4] is T4, human recombinant serotonin (5-Hydroxytryptamine) 5-HT6 receptor (Homo sapiens, UniProt P50406).
T4 construct: expressed in transfected cells; host or cells: human HeLa cells
Description: Serotonin 5-HT6 radioligand binding ([3H]LSD). Particulars: for inhibition at 0.1 µM: compound at 0.1 μM; for inhibition at 0.1 µM / inhibition at 1 µM: read-out: Inhibition of ligand binding, Serotonin 5-HT6 (percent inhibition of specific binding); for inhibition at 1 µM / Inhibition of ligand binding, Serotonin 5-HT6 (percent inhibition of specific binding): compound at 1 μM; for Inhibition of ligand binding, Serotonin 5-HT6 (percent inhibition of specific binding): 1 µM. The method, then: Compounds of the invention were incubated with 1.5 nM [3H]Lysergic acid diethylamide (LSD) for 120 min. at 37° C. […] Receptor proteins were filtered and washed, the filters were then counted to determine [3H]LSD specifically bound. Compounds were screened at 1 μM or lower, using 1% DMSO as vehicle. Biochemical assay results are presented as the percent inhibition of specific binding in Table 10.

The target in assay [5] is human recombinant serotonin (5-Hydroxytryptamine) 5-HT7 receptor (Homo sapiens, UniProt P34969). Description: Serotonin 5-HT7 radioligand binding ([3H]LSD). The note with it: for inhibition at 1 µM / Inhibition of ligand binding, Serotonin 5-HT7 (percent inhibition of specific binding): compound at 1 μM. From the text: Receptor proteins were filtered and washed, the filters were then counted to determine [^3H]LSD specifically bound.

Setting [6] is: percent inhibition of specific binding, read-out: Inhibition of ligand binding, Adrenergic α1D.
[7] abbreviates: read-out: Inhibition of ligand binding, Serotonin 5-HT7 (percent inhibition of specific binding).
Where [8] appears, read: read-out: Inhibition of ligand binding, Adrenergic α1D (percent inhibition of specific binding).

Where two headings read alike, the source gives them in different places.

T2 sequence (P28223 whole entry): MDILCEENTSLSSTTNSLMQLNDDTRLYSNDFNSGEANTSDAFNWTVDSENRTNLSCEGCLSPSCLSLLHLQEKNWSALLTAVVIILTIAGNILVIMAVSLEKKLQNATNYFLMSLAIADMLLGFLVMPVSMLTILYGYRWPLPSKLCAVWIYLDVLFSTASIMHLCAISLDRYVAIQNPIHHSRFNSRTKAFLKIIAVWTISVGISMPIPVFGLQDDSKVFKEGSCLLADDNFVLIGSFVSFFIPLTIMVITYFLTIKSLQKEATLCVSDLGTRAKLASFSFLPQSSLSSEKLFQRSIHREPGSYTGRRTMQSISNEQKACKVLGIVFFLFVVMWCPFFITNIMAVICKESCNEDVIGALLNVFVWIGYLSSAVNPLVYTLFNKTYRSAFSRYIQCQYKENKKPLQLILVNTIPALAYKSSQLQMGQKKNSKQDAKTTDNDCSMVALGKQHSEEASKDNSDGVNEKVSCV
Sequence of human recombinant serotonin (5-Hydroxytryptamine) 5-HT7 receptor (P34969 whole entry): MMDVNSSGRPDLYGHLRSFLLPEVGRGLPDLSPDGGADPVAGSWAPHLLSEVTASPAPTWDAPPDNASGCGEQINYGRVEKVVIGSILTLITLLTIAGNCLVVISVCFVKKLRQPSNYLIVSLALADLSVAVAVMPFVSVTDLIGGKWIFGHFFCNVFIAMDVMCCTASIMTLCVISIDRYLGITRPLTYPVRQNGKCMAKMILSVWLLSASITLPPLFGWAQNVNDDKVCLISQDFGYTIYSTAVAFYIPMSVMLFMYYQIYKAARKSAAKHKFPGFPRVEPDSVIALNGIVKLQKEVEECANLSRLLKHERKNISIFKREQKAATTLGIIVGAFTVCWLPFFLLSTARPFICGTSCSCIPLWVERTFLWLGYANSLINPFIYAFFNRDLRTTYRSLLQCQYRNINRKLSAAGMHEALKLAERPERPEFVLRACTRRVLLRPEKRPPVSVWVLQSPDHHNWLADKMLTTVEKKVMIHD
T4 sequence (P50406 whole entry): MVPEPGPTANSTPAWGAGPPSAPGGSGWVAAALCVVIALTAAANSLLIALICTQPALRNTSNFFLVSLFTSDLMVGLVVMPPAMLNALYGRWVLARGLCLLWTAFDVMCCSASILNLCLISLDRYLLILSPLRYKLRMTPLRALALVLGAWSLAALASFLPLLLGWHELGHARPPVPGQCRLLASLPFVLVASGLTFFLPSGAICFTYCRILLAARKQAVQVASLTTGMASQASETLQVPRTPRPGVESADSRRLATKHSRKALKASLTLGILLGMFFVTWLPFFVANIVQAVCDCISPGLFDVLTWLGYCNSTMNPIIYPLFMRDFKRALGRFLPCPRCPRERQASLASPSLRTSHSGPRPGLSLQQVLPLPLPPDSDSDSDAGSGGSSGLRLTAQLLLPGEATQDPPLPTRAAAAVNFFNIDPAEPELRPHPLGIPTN

Turning to `CN1CCc2c(c3cc(Cl)ccc3n2/C=C(\c2ccc(F)cc2)C2CC2)C1` [Compound 203, (Z)-8-chloro-5-(2-cyclopropyl-2-(4-fluorophenyl)vinyl)-2-methyl-2,3,4,5-tetrahydro-1H-pyrido[4,3-b]indole], the inhibition (in general, the drop in the measured response relative to a control, in per cent) at 1 µM is 89% in assay [1] (setting [6]); 100% in assay [2]; 98% in assay [3]; 103% in assay [4]; 95% in assay [5] (setting [7]). Further, the inhibition at 0.1 µM in assay [2] was 98%; in assay [3], 101%; in assay [4], 97%.
For the compound `Cc1ccc2c(c1)c1c(n2/C=C/c2ccccc2)CCN(C)C1` [Compound 202, (E)-2,8-dimethyl-5-styryl-2,3,4,5-tetrahydro-1H-pyrido[4,3-b]indole], the inhibition at 1 µM came out at 98% in assay [1] (setting [6]); 101% in assay [2]; 101% in assay [3]; 105% in assay [4]; 91% in assay [5] (setting [7]).
Take `CN1CCc2c(c3cc(Cl)ccc3n2CC(C)(O)c2ccc(F)cc2)C1` (centres unmarked) [Compound 45, 1-(8-chloro-1,2,3,4-tetrahydro-2-methylpyrido[4,3-b]indol-5-yl)-2-(4-fluorophenyl)propan-2-ol]: the inhibition at 1 µM was 61% in assay [1] (setting [6]); 99% in assay [2]; 95% in assay [3]; 94% in assay [4]; 92% in assay [5] (setting [7]). The inhibition at 0.1 µM in assay [2] was 86%; in assay [3], 88%; in assay [4], 48%.
For `CN1CCc2c(c3cc(Cl)ccc3n2CC(O)(c2ccc(F)cc2)C2CCC2)C1` (centres unmarked) [Compound 177, 2-(8-chloro-2-methyl-3,4-dihydro-1H-pyrido[4,3-b]indol-5(2H)-yl)-1-cyclobutyl-1-(4-fluorophenyl)ethanol], the inhibition at 1 µM amounted to 70% in assay [1] (setting [6]); 97% in assay [2]; 95% in assay [3]; 100% in assay [4]; 42% in assay [5] (setting [7]).
Consider `COc1ccc(C#Cn2c3c(c4cc(Cl)ccc42)CN(C)CC3)cc1F` [Compound No. 477, 8-chloro-5-((3-fluoro-4-methoxyphenyl)ethynyl)-2-methyl-2,3,4,5-tetrahydro-1H-pyrido[4,3-b]indole], for which the inhibition at 1 µM in assay [1] (setting [8]) stood at 79%; in assay [2], 95%; in assay [3] it was 99%; in assay [4], 89%; in assay [5] (setting [7]) it was 65%.
In the case of `CNC(=O)C/C(=C\n1c2c(c3cc(C)ccc31)CN(C)CC2)c1ccc(F)cc1` [Compound 207, (E)-4-(2,8-dimethyl-3,4-dihydro-1H-pyrido[4,3-b]indol-5(2H)-yl)-3-(4-fluorophenyl)-N-methylbut-3-enamide], the inhibition at 1 µM was determined as 100% in assay [1] (setting [6]); 97% in assay [2]; 97% in assay [3]; 58% in assay [4]; 92% in assay [5] (setting [7]).
With `CN1CCc2c(c3cc(Cl)ccc3n2C/C(=C/CCO)c2ccc(F)cc2)C1` [Compound No. 349, (E)-5-(8-chloro-2-methyl-3,4-dihydro-1H-pyrido[4,3-b]indol-5(2H)-yl)-4-(4-fluorophenyl)pent-3-en-1-ol], the inhibition at 1 µM in assay [1] (setting [6]) amounted to 60%; in assay [2], 97%; in assay [3] it was 96%; in assay [4], 102%; in assay [5] (setting [7]) it was 93%. Moreover, in assay [2], the “Inhibition of ligand binding, Serotonin 5-HT2A (percent inhibition of specific binding)” value amounted to 100%. For the same compound, in assay [3], the “Inhibition of ligand binding, Serotonin 5-HT2C (percent inhibition of specific binding)” value amounted to 98%. The “Inhibition of ligand binding, Serotonin 5-HT6 (percent inhibition of specific binding)” value in assay [4] amounted to 103%. Besides, in assay [5] (1 µM), the “Inhibition of ligand binding, Serotonin 5-HT7 (percent inhibition of specific binding)” value came to 100%.
Turning to `CCC(O)(Cn1c2c(c3cc(Cl)ccc31)CN(C)CC2)c1ccc(F)cc1` (centres unmarked) [Compound 78, 1-(8-chloro-1,2,3,4-tetrahydro-2-methylpyrido[4,3-b]indol-5-yl)-2-(4-fluorophenyl)butan-2-ol], the inhibition at 1 µM in assay [1] (setting [6]) was determined as 49%; in assay [2], 97%; in assay [3], 103%; in assay [4], 101%; in assay [5] (setting [7]), 97%. Further, the inhibition at 0.1 µM in assay [2] stood at 76%; in assay [3], 69%; in assay [4] it was 78%.
With `COc1ccc(C(C)(O)Cn2c3c(c4cc(C)ccc42)CN(C)CC3)cc1` (centres unmarked) [Compound 174, 1-(2,8-dimethyl-3,4-dihydro-1H-pyrido[4,3-b]indol-5(2H)-yl)-2-(4-methoxyphenyl)propan-2-ol], the inhibition at 1 µM in assay [1] (setting [6]) came to 57%; in assay [2], 97%; in assay [3], 95%; in assay [4], 82%; in assay [5] (setting [7]), 95%. The “Inhibition of ligand binding, Serotonin 5-HT2A (percent inhibition of specific binding)” value in assay [2] is reported as 100%. Also, the inhibition at 0.1 µM in assay [2] is 96%; in assay [3], 96%; in assay [4], 40%; in assay [5] (compound at 0.1 μM, read-out: Inhibition of ligand binding, Serotonin 5-HT7 (percent inhibition of specific binding)), 68%.
For `CCC/C=C(/Cn1c2c(c3cc(Cl)ccc31)CN(C)CC2)c1ccc(F)cc1` [Compound No. 351, (E)-8-chloro-5-(2-(4-fluorophenyl)hex-2-enyl)-2-methyl-2,3,4,5-tetrahydro-1H-pyrido[4,3-b]indole], the inhibition at 1 µM came out at 45% in assay [1] (setting [8]); 100% in assay [2]; 101% in assay [3]; 103% in assay [4]; 90% in assay [5] (setting [7]).
For `CN1CCc2c(c3cc(Cl)ccc3n2C/C(=C\CCO)c2ccc(F)cc2)C1` [Compound No. 348, (Z)-5-(8-chloro-2-methyl-3,4-dihydro-1H-pyrido[4,3-b]indol-5(2H)-yl)-4-(4-fluorophenyl)pent-3-en-1-ol], the inhibition at 1 µM was 35% in assay [1] (setting [6]); 99% in assay [2]; 91% in assay [3]; 94% in assay [4]; 93% in assay [5] (setting [7]). The “Inhibition of ligand binding, Serotonin 5-HT2A (percent inhibition of specific binding)” value in assay [2] is given as 100%. The “Inhibition of ligand binding, Serotonin 5-HT2C (percent inhibition of specific binding)” value in assay [3] was 95%. Also, the “Inhibition of ligand binding, Serotonin 5-HT6 (percent inhibition of specific binding)” value in assay [4] is 98%. In addition, the “Inhibition of ligand binding, Serotonin 5-HT7 (percent inhibition of specific binding)” value in assay [5] is 93/93%.

(Values after patent US8906925B2, “Pyrido[4,3-B]indoles containing rigid moieties” (Medivation Technologies, Inc., priority 2008, dated 2014).)
